Experimental findings from patent publication US20220125051A1, “PRE-HARVEST DESICCATION METHOD” (SYNGENTA CROP PROTECTION AG, priority 2019, published 2022) are described below.

Where a name gives a salt, the structure may show the parent alone.

What all share (experiment): Post-emergence efficacy, Method A
What all share (assay type): in vivo

Test [1] relates to Amaranthus palmeri (AMAPA). Particulars: Application Rate 500 g/Ha, evaluated after 13 days, Method A; for pest or weed control at 500 g/ha: Amaranthus palmeri, post-emergence, 312 h, read-out: Control of weed species after post-emergence application, AMAPA (100=total damage to plant; 0=no damage to plant). In short, it runs like this:
(§1)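 Sow in standard soil; grow 14 d under glasshouse control (24/16 °C, 14 h light, 65% humidity). Spray post-emergence with compound formulated in acetone/IF50, diluted in Empicol ESC70 (0.25% or 1%) + 1% ammonium sulphate. Return to glasshouse, water twice daily, score at 13 d on a 0–100 damage scale.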

The subject of test [2] is Chenopodium album (CHEAL). Particulars: Application Rate 500 g/Ha, evaluated after 13 days, Method A; for pest or weed control at 500 g/ha: Chenopodium album, post-emergence, 312 h, read-out: Control of weed species after post-emergence application, CHEAL (100=total damage to plant; 0=no damage to plant). In outline:
as §1

Test [3] concerns Digitaria sanguinalis (DIGSA). Particulars: Application Rate 500 g/Ha, evaluated after 13 days, Method A; for pest or weed control at 500 g/ha: Digitaria sanguinalis, post-emergence, 312 h, read-out: Control of weed species after post-emergence application, DIGSA (100=total damage to plant; 0=no damage to plant). In short, it runs like this: as §1
In test [4] the test system is Echinochloa crus-galli (ECHCG). Particulars: Application Rate 500 g/Ha, evaluated after 13 days, Method A; for pest or weed control at 500 g/ha: Echinochloa crus-galli, post-emergence, 312 h, read-out: Control of weed species after post-emergence application, ECHCG (100=total damage to plant; 0=no damage to plant). In outline: as §1
In the next test the test system is Eleusine indica (ELEIN). Particulars: Application Rate 500 g/Ha, evaluated after 13 days, Method A; for pest or weed control at 500 g/ha: Eleusine indica, post-emergence, 312 h, read-out: Control of weed species after post-emergence application, ELEIN (100=total damage to plant; 0=no damage to plant). In outline:
as §1

The subject of test [5] is Euphorbia heterophylla (EPHHL). Particulars: Application Rate 500 g/Ha, evaluated after 13 days, Method A; for pest or weed control at 500 g/ha: Euphorbia heterophylla, post-emergence, 312 h, read-out: Control of weed species after post-emergence application, EPHHL (100=total damage to plant; 0=no damage to plant). In outline: as §1
For test [6], the system named is Ipomoea hederacea (IPOHE). Particulars: Application Rate 500 g/Ha, evaluated after 13 days, Method A; for pest or weed control at 500 g/ha: Ipomoea hederacea, post-emergence, 312 h, read-out: Control of weed species after post-emergence application, IPOHE (100=total damage to plant; 0=no damage to plant). In short, it runs like this: as §1
The subject of a further test is Lolium perenne (LOLPE). Particulars: Application Rate 500 g/Ha, evaluated after 13 days, Method A; for pest or weed control at 500 g/ha: Lolium perenne, post-emergence, 312 h, read-out: Control of weed species after post-emergence application, LOLPE (100=total damage to plant; 0=no damage to plant). In short, it runs like this: as §1
The test system of another test is Setaria faberi (SETFA). Particulars: Application Rate 500 g/Ha, evaluated after 13 days, Method A; for pest or weed control at 500 g/ha: Setaria faberi, post-emergence, 312 h, read-out: Control of weed species after post-emergence application, SETFA (100=total damage to plant; 0=no damage to plant). In outline:
as §1

As for `O=S(=O)(O)CC[n+]1ccc(-c2cccnc2)cn1` [Compound A179], the “Control of weed species after post-emergence application, AMAPA (100=total damage to plant; 0=no damage to plant)” value in test [1] was found to be 30. Also, the “Control of weed species after post-emergence application, CHEAL (100=total damage to plant; 0=no damage to plant)” value in [2] worked out at 30. In addition, the “Control of weed species after post-emergence application, DIGSA (100=total damage to plant; 0=no damage to plant)” value in test [3] was found to be 50. In test [4], the “Control of weed species after post-emergence application, ECHCG (100=total damage to plant; 0=no damage to plant)” value was 40. Further, in the test with Eleusine indica (ELEIN), the “Control of weed species after post-emergence application, ELEIN (100=total damage to plant; 0=no damage to plant)” value was 50. Further, the “Control of weed species after post-emergence application, EPHHL (100=total damage to plant; 0=no damage to plant)” value in test [5] worked out at 60. Further, the “Control of weed species after post-emergence application, IPOHE (100=total damage to plant; 0=no damage to plant)” value in test [6] amounted to 20. In addition, the “Control of weed species after post-emergence application, LOLPE (100=total damage to plant; 0=no damage to plant)” value in the test on Lolium perenne (LOLPE) is given as 10. Also, in the test with Setaria faberi (SETFA), the “Control of weed species after post-emergence application, SETFA (100=total damage to plant; 0=no damage to plant)” value stood at 60.
As for `O=C(O)C(O)C[n+]1ccc(-c2ncccn2)cn1` (stereo not drawn) [Compound A180], the pest or weed control at 500 g/ha in test [1] was determined as 100%; in test [2], 90%; in test [3], 60%; in test [4], 70%; with Eleusine indica (ELEIN) it was 90%; in test [5], 80%. Besides, the pest or weed control at 500 g/ha in test [6] was 20%; in the test with Lolium perenne (LOLPE), 30%; in the test on Setaria faberi (SETFA) it was 70%.
As to `N#Cc1ccnc(-c2cc[n+](CCO)nc2)n1` [Compound A186], the pest or weed control at 500 g/ha in test [1] came to 70%; in [2], 70%; in test [3], 60%; in test [4], 30%; in the test on Eleusine indica (ELEIN) it was 50%; in [5], 30%. Further, the values for the pest or weed control at 500 g/ha (in [6]; with Lolium perenne (LOLPE); with Setaria faberi (SETFA)) were 30%, 10% and 60%, respectively.
Regarding `Nc1cc(-c2cc[n+](CCC(=O)O)nc2)nc(N)n1` [Compound A188], the pest or weed control at 500 g/ha in test [1] was 90%; in test [2] it was 50%; in test [3], 40%; in [4] it was 50%; in the test with Eleusine indica (ELEIN), 20%; in [5], 30%. Further, the pest or weed control at 500 g/ha in [6] was 20%; in the test on Lolium perenne (LOLPE), 20%; with Setaria faberi (SETFA) it was 30%.
As to `CC(C)(CC(=O)O)[n+]1ccc(-c2ccncn2)cn1` [Compound A189], the pest or weed control at 500 g/ha in test [1] is 100%; in [2], 100%; in test [3], 50%; in test [4] it was 80%; in the test with Eleusine indica (ELEIN) it was 90%; in [5], 90%. In addition, the pest or weed control at 500 g/ha in test [6] was determined as 70%; in the test with Lolium perenne (LOLPE) it was 30%; in the test on Setaria faberi (SETFA) it was 70%.
As for `O=C(O)C(O)C[n+]1ccc(-c2ccncn2)cn1` (stereo not drawn) [Compound A190], the pest or weed control at 500 g/ha was 100% in [1]; 80% in [2]; 60% in [3]; 60% in test [4]; 70% with Eleusine indica (ELEIN); 80% in test [5]. Also, the pest or weed control at 500 g/ha was determined as 70% in test [6], 40% with Lolium perenne (LOLPE) and 40% with Setaria faberi (SETFA).
In the case of `N#Cc1cnc(-c2cc[n+](CCS(=O)(=O)[O-])nc2)cn1` [Compound A191], the pest or weed control at 500 g/ha in test [1] stood at 100%; in test [2] it was 30%; in test [3], 20%; in [4] it was 10%; in the test on Eleusine indica (ELEIN), 30%; in [5], 30%. Further, the pest or weed control at 500 g/ha came out at 30% in test [6], 30% in the test on Lolium perenne (LOLPE) and 20% in the test with Setaria faberi (SETFA).
In the case of `COC(=O)C(C)[n+]1ccc(-c2ncccn2)cn1` (stereo not drawn) [Compound A192], the pest or weed control at 500 g/ha came to 90% in [1]; 60% in [2]; 30% in test [3]; 30% in test [4]; 30% with Eleusine indica (ELEIN); 40% in [5]. The pest or weed control at 500 g/ha turned out to be 30% in test [6], 10% in the test with Lolium perenne (LOLPE) and 20% with Setaria faberi (SETFA).
For the compound `CC(C(=O)OC(C)(C)C)[n+]1ccc(-c2ncccn2)cn1` (stereo not drawn) [Compound A193], the pest or weed control at 500 g/ha in test [1] amounted to 70%; in test [2] it was 60%; in test [3], 30%; in test [4], 10%; in the test with Eleusine indica (ELEIN), 30%; in test [5], 60%. In addition, the pest or weed control at 500 g/ha in test [6] was determined as 30%; with Lolium perenne (LOLPE), 10%; in the test on Setaria faberi (SETFA), 10%.
On to `O=S(=O)([O-])OCC[n+]1ccc(-c2ncccn2)cn1` [Compound A194, 2-(4-pyrimidin-2-ylpyridazin-1-ium-1-yl)ethyl sulfate], for which the pest or weed control at 500 g/ha in [1] turned out to be 100%; in [2], 70%; in [3] it was 50%; in test [4], 70%; in the test on Eleusine indica (ELEIN), 90%; in test [5] it was 70%. Moreover, the results for the pest or weed control at 500 g/ha (in test [6]; with Lolium perenne (LOLPE); with Setaria faberi (SETFA)) were 60%, 50% and 50%, respectively.
Regarding `Cc1cc(F)cnc1-c1cc[n+](CCCS(=O)(=O)[O-])nc1` [Compound A196], the pest or weed control at 500 g/ha in [1] came out at 30%; in test [2], 40%; in [3], 0%; in test [4] it was 0%; in the test with Eleusine indica (ELEIN) it was 10%; in test [5], 30%. The pest or weed control at 500 g/ha is 20% in test [6], 0% with Lolium perenne (LOLPE) and 0% in the test on Setaria faberi (SETFA).
`O=C(O)CC[n+]1ccc(-c2ncc(C(F)(F)F)cc2Cl)cn1` [Compound A197]: the pest or weed control at 500 g/ha in [1] came out at 100%; in [2], 10%; in test [3], 20%; in test [4], 0%; with Eleusine indica (ELEIN), 10%; in [5] it was 10%. Also, the pest or weed control at 500 g/ha was found to be 10% in test [6], 0% with Lolium perenne (LOLPE) and 0% in the test on Setaria faberi (SETFA).
As to `O=P(O)(O)CC[n+]1ccc(-c2ncccn2)cn1` [Compound A198], the pest or weed control at 500 g/ha is 100% in [1]; 100% in test [2]; 80% in test [3]; 80% in test [4]; 80% in the test on Eleusine indica (ELEIN); 100% in [5]. Further, the figures for the pest or weed control at 500 g/ha (in [6]; with Lolium perenne (LOLPE); with Setaria faberi (SETFA)) were 50%, 50% and 90%, respectively.
In the case of `O=C(O)CC[n+]1ccc(-c2ccc(C(F)(F)F)cn2)cn1` [Compound A200], the pest or weed control at 500 g/ha was 100% in test [1]; 70% in test [2]; 40% in test [3]; 40% in test [4]; 30% in the test on Eleusine indica (ELEIN); 70% in [5]. Moreover, the figures for the pest or weed control at 500 g/ha (in test [6]; in the test on Lolium perenne (LOLPE); with Setaria faberi (SETFA)) were 10%, 40% and 50%, respectively.
